Measurements taken from ChEMBL document CHEMBL1201862, “PubChem BioAssay data set” (2004).
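Method: 48-hour compound exposure of cells in 96-well plates, five concentrations, linear interpolation of endpoints. At the GI50, growth is halved.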 Activity calls are given as the source filed them. Rule as the data show it: active = GI50 up to about 1.1 µM and inactive = higher.

Columns and labels:
Assay in all cases: NCI-60 cell line screen, 48 h
XF498 = system: XF498
DLD-1 = system: DLD-1
DMS-114 = system: DMS-114
SNB-78 = system: SNB-78
M19-MEL = system: M19-MEL
HOP-18 = system: HOP-18
DMS-273 = system: DMS-273
RXF 631 = system: RXF 631
MCF7 = system: MCF7

Row | Compound | GI50 (XF498) | GI50 (DLD-1) | GI50 (DMS-114) | GI50 (SNB-78) | GI50 (M19-MEL) | GI50 (HOP-18) | GI50 (DMS-273) | GI50 (RXF 631) | GI50 (MCF7)
1 | CCOc1ccccc1NC(=O)C1=C(C)NC(C)=C(C(=O)Nc2ccccc2OCC)C1c1ccc(NC(C)=O)cc1 | 9.68 µM (inactive) | 37 µM (inactive) | 40.2 µM (inactive) | 40.9 µM (inactive) | 28.2 µM (inactive) |  |  |  | 
2 | CCN(CC)CCNC(=O)c1nn(C)c(=S)[nH]c1=S | > 100 µM (inactive) | > 100 µM (inactive) | > 100 µM (inactive) | > 100 µM (inactive) | > 100 µM (inactive) | > 100 µM (inactive) | > 100 µM (inactive) |  | 
3 | COC(=O)C1=C(C(=O)OC)C23CC4CCC2(C(=O)C1O3)C4(C)C (stereo not given) | > 100 µM (inactive) | 57.1 µM (inactive) |  |  | > 100 µM (inactive) | 95.9 µM (inactive) |  |  | 
4 | O=c1cc2n(c(=O)[nH]1)C1OC(C(O)C1O)[C@@H]2CCO (stereo not given in full) |  | > 100 µM (inactive) | > 100 µM (inactive) | > 100 µM (inactive) | > 100 µM (inactive) |  | > 100 µM (inactive) |  | 
5 | COc1cc(CC(=O)O)c([N+](=O)[O-])cc1OC |  | > 100 µM (inactive) | > 100 µM (inactive) | > 100 µM (inactive) | > 100 µM (inactive) |  | > 100 µM (inactive) | > 100 µM (inactive) | 
6 | COC1=C(OC)C(=O)c2cc(SC)c(=O)c(SC)cc2C1=O | 5.14 µM (inactive) | 28.4 µM (inactive) | 3.4 µM (inactive) |  |  | 20.2 µM (inactive) | 25.5 µM (inactive) |  | 
7 | CN(C)CC/C(=N\Nc1ccc([N+](=O)[O-])cc1)c1ccccc1 |  | 13.3 µM (inactive) | 5.14 µM (inactive) | 4.4 µM (inactive) |  | 7.62 µM (inactive) | 10.3 µM (inactive) |  | 
8 | N#CC(NNC(=O)c1ccccc1O)c1ccccc1 (stereo not given) |  | 2.63 µM (inactive) | 0.721 µM (active) | 0.9 µM (active) | 1.32 µM (inactive) | 12.6 µM (inactive) | 0.468 µM (active) |  | 
9 | N#Cc1c2c(c(N=P(c3ccccc3)(c3ccccc3)c3ccccc3)n3c1nc1ccccc13)CCCC2 |  | 32.8 µM (inactive) | 21.5 µM (inactive) | 21.3 µM (inactive) | 18 µM (inactive) | 25.9 µM (inactive) | 14.5 µM (inactive) | 29 µM (inactive) | 
10 | O=C1C2=C(C(c3ccccc3)=C1c1ccccc1)c1ccccc1C1(c3ccccc3)C2=C(O)C(c2ccccc2)=C1c1ccccc1 (stereo not given) |  | > 100 µM (inactive) | > 100 µM (inactive) | > 100 µM (inactive) | > 100 µM (inactive) | > 100 µM (inactive) | > 100 µM (inactive) | > 100 µM (inactive) | 
11 | CCCc1c(C(=O)OCC)[nH]c(-c2ccc(-c3[nH]c(C(=O)OCC)c(CCC)c3C(=O)OCC)s2)c1C(=O)OCC | 27.3 µM (inactive) | > 100 µM (inactive) | 38.1 µM (inactive) | > 100 µM (inactive) | 52.8 µM (inactive) | > 100 µM (inactive) | 30.7 µM (inactive) |  | 
12 | O=C1Oc2cc3c(c4cccc1c24)OCN(c1ccc(Cl)cc1)C3 | 16.7 µM (inactive) | 5.42 µM (inactive) | 5.9 µM (inactive) | > 100 µM (inactive) | 14.4 µM (inactive) | 34 µM (inactive) | 0.423 µM (active) |  | 
13 | O=P(Oc1ccc2ccccc2c1)(N1CC1)N1CC1 | 17.7 µM (inactive) | 92.3 µM (inactive) | 38.4 µM (inactive) | > 100 µM (inactive) | 13.5 µM (inactive) | 22.6 µM (inactive) | 6.21 µM (inactive) |  | 
14 | On1c(-c2ccccc2)c(-c2c(-c3ccccc3)n(O)c3ccccc23)c2ccccc21 | 19.8 µM (inactive) | 54.6 µM (inactive) | 24.7 µM (inactive) | 35.7 µM (inactive) | 11.2 µM (inactive) | 26.1 µM (inactive) | 39.6 µM (inactive) |  | 
15 | O=C(Nc1ccccc1)N1C(c2ccccc2)=N[C@@H](c2ccccc2)[C@@H]1c1ccccc1 |  | 15.1 µM (inactive) | 14.7 µM (inactive) | 33.7 µM (inactive) | 19.5 µM (inactive) | 18.9 µM (inactive) |  | 35.2 µM (inactive) | 
16 | NC1c2ccccc2Nc2ccccc21 | 3.16 µM (inactive) | 3.8 µM (inactive) | 3.24 µM (inactive) | 9.1 µM (inactive) | 3.36 µM (inactive) | 8.81 µM (inactive) | 4.52 µM (inactive) |  | 
17 | Cc1ccccc1C(CCCO)C(=O)O (stereo not given) | > 100 µM (inactive) | > 100 µM (inactive) | > 100 µM (inactive) | > 100 µM (inactive) | > 100 µM (inactive) |  | > 100 µM (inactive) |  | 
18 | COC(=O)N/N=C(\Cc1ccccc1)CN(C)C | > 100 µM (inactive) | > 100 µM (inactive) | > 100 µM (inactive) | > 100 µM (inactive) | > 100 µM (inactive) |  | > 100 µM (inactive) | > 100 µM (inactive) | 
19 | CC1=N/C(=C\c2ccc([N+](=O)[O-])cc2)C(=O)O1 |  | > 100 µM (inactive) | > 100 µM (inactive) | > 100 µM (inactive) | > 100 µM (inactive) | > 100 µM (inactive) |  | > 100 µM (inactive) | 
20 | COC(=O)C1CC2(CC3=C1CCCC3)OCCO2 (stereo not given) | > 100 µM (inactive) | > 100 µM (inactive) | > 100 µM (inactive) | > 100 µM (inactive) | > 100 µM (inactive) |  | > 100 µM (inactive) | > 100 µM (inactive) | 
21 | CCOC(OCC)C(CC)[Se]c1ccccc1[N+](=O)[O-] (stereo not given) | 2.92 µM (inactive) | 3.1 µM (inactive) |  | 7.76 µM (inactive) | 4.42 µM (inactive) | 11.8 µM (inactive) | 1.01 µM (active) |  | 
22 | C[C@]12CC[C@H](O)CC1=CC[C@@H]1C2CC[C@]2(C)Nc3c(cnn3-c3ccccc3)CC12 (stereo not given in full) |  | 3.52 µM (inactive) | 2.82 µM (inactive) | 8.2 µM (inactive) | 5.35 µM (inactive) |  | 0.869 µM (active) | 0.44 µM (active) | 
23 | CCOC(=O)NC(=O)c1cn(CCN2CCN(C(=O)CCCCCCCCCCC(=O)N3CCN(CCn4cc(C(=O)NC(=O)OCC)c(=O)[nH]c4=O)CC3)CC2)c(=O)[nH]c1=O | > 100 µM (inactive) | > 100 µM (inactive) | > 100 µM (inactive) |  | > 100 µM (inactive) | > 100 µM (inactive) |  |  | 
24 | CCOC(=O)c1ccc(N2C(=O)/C(=C\OC)c3ccccc3C2=O)cc1 |  |  | 31.5 µM (inactive) | 43.7 µM (inactive) | 75.2 µM (inactive) |  | 33.1 µM (inactive) |  | 
25 | O[C@]12c3ccccc3C1CCCCC2N1CCOCC1 (stereo not given in full) | > 100 µM (inactive) |  | > 100 µM (inactive) | > 100 µM (inactive) | > 100 µM (inactive) | > 100 µM (inactive) | > 100 µM (inactive) |  | 
26 | CCOC(=O)CCNC(=O)c1cc(C)cc2c1Oc1c(cc(C)cc1C(=O)NCCC(=O)OCC)S2 |  |  |  |  |  |  |  |  | 57.1 µM (inactive)
27 | CCC(C#N)N(Cc1cccc(CN(C(C)=O)C(C#N)CC)c1)C(C)=O (stereo not given) |  |  |  |  |  |  |  |  | > 100 µM (inactive)
28 | COc1cc2ccc1OCc1cccc(n1)COc1ccc(cc1OC)/C=N\CCNCCNCC/N=C\2 |  |  |  |  |  |  |  |  | 49 µM (inactive)
29 | COc1ccc2c(n1)Sc1nc3ccccc3nc1N2 |  |  |  |  |  |  |  |  | 65.2 µM (inactive)
